Data: US20220387602A1, “BIFUNCTIONAL DEGRADERS AND THEIR METHODS OF USE” (NOVARTIS AG, priority 2019, published 2022)

Columns and labels:
BTK = target: T1, BTK (Homo sapiens, UniProt Q06187); test: BTK-GFP protein abundance flow cytometry assay in HEK293A; assay type: cell-based; conditions: 24 h; for BTK degradation Amax: % protein remaining at the concentration at which maximum degradation is seen, HEK293A; for DC50: concentration at which 50% maximal degradation was observed, HEK293A BTK-GFP sensor cells
T1 construct: the BTK open reading frame (ORF) was first shuttled from a pcDNA-DEST40-BTK vector; expressed in transfected cells; host or cells: HEK293A (Invitrogen R70507), lentiviral transduction, blasticidin selection
T1 sequence (Q06187 whole entry): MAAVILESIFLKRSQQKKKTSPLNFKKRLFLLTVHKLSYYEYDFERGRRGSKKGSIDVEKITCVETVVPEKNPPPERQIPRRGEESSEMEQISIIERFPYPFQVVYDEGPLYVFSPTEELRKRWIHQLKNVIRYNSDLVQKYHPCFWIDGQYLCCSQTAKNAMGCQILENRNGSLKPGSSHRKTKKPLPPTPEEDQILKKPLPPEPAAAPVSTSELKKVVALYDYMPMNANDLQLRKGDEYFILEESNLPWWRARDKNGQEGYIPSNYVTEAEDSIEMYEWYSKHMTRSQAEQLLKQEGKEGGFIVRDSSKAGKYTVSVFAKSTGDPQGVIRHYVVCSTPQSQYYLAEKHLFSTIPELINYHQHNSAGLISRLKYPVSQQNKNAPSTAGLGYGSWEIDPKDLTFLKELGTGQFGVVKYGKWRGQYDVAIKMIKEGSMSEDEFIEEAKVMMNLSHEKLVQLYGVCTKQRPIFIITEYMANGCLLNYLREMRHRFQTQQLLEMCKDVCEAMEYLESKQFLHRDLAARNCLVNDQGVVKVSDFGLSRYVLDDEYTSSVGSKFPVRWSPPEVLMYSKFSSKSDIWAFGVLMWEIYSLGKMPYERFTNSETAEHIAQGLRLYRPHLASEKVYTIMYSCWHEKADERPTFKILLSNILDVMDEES
Outline: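 HEK293A cells stably expressing bicistronic BTK-GFP-iresRFP were treated 24 h at 37° C with 10-point 1:3 dilutions from 10 μM, DMSO at 0.1%. GFP was read by flow cytometry as median of 5,000 single cells, scaled between RFP-only cells (0%) and DMSO controls (100%). DC50 = concentration at 50% degradation; Amax = % protein remaining at maximal degradation.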

CRBN = CRBN (Homo sapiens, UniProt Q96SW2); test: CRBN displacement assay Format 1 (fluorescence polarization, BodipyFL-lenalidomide probe Compound HH); assay type: binding
Chain of CRBN (Q96SW2 whole entry): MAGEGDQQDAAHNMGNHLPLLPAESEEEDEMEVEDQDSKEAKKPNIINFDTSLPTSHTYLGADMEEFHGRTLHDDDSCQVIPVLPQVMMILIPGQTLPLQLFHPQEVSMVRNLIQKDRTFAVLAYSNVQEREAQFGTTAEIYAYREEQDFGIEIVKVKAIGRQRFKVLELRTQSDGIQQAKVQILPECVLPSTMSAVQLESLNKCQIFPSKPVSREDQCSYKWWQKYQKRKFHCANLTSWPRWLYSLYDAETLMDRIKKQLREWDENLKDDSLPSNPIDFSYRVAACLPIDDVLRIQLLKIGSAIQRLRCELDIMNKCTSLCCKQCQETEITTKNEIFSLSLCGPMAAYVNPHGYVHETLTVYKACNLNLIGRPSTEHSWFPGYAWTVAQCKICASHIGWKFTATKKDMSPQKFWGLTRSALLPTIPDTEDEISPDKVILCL
Description: Compounds were tested in the following biochemical and cellular assays.
BodipyFL conjugated lenalidomide compound HH was used as a fluorescent probe. […] Protein and substrate were diluted in assay buffer.
All protein and probe containing solutions were handled in ‘Maxymum Recovery’ tubes (Axygen Scientific Inc., Union City, USA). […] For the plate measurements a PHERAstar reader (BMG Labtech, Offenburg, Germany) was used. The instrument was equipped with a specific optics module containing filters and dichoic mirrors for measuring the fluorescence polarization-type assay. With this module, the fluorescence of the Bodipy FL-based probe was excited at 485 nm and the emissions of the product were measured at 520 nm. The fluorescence in each well was excited by 10 flashes per measurement.
For the determination of AC50 values, the assays were performed at room temperature in 384-well plates with a total assay volume of 10.1 μL per well. The test compound was dissolved in 90% (v/v) DMSO/water. For the assays, 100 nL of the 90% (v/v) DMSO/water solution or compound solution were added per well, followed by the addition of 5 μL protein solution (protein in 1× assay buffer).
The final assay concentration of the protein was nominally 100 nM. After 45 minutes of pre-incubation at room temperature, the competition for binding was started by the addition of 5 μL probe solution (probe dissolved in assay buffer). The final concentration of the probes in the assays was 5 nM. After the addition of the probe solution, the final DMSO concentration in the assay was 0.9% (v/v). The effect of the probe on the pre-established compound-protein complex equilibrium was determined after 45 minutes (t=45 min). The AC50 value was calculated from the plot of percentage of protein saturation versus the test compound concentration by a logistics fit according to: y=A^2+(A^1−A^2)/(1+(x/AC50)^p), where y is the %-saturation value at the test compound concentration, x. A^1 is the lowest saturation value, i.e., 0%, and A^2 the maximum saturation value, i.e. 100%. The exponent, p, is the Hill coefficient.

SMILES	BTK degradation Amax (BTK) [%]	DC50 (BTK) [nM]	AC50 (CRBN) [nM]
Cc1c(NC(=O)c2ccc(C(C)(C)O)cc2F)cc(F)cc1-c1ncnc2[nH]c(-c3ccc(CN4CCN(C(=O)N5CCN(CCC#Cc6cccc(N7CCC(=O)NC7=O)c6)CC5)CC4)cc3)cc12 [Compound 03, N-(3-(6-(4-((4-(4-(4-(3-(2,4-dioxotetrahydropyrimidin-1(2H)-yl)phenyl)but-3-yn-1-yl)piperazine-1-carbonyl)piperazin-1-yl)methyl)phenyl)-7H-pyrrolo[2,3-d]pyrimidin-4-yl)-5-fluoro-2-methylphenyl)-2-fluoro-4-(2-hydroxypropan-2-yl)benzamide]	41.9	24.8	257
Cc1ccc(N2CCC(=O)NC2=O)cc1CNC(=O)CCCCN(C)Cc1ccc(-c2cc3c(-c4cc(F)cc(NC(=O)c5ccc(C(C)(C)O)cc5F)c4C)ncnc3[nH]2)cc1 [Compound 08, N-(3-(6-(4-(((5-((5-(2,4-dioxotetrahydropyrimidin-1(2H)-yl)-2-methylbenzyl)amino)-5-oxopentyl)(methyl)amino)methyl)phenyl)-7H-pyrrolo[2,3-d]pyrimidin-4-yl)-5-fluoro-2-methylphenyl)-2-fluoro-4-(2-hydroxypropan-2-yl)benzamide]	55.1	> 3330	2100
Cc1c(NC(=O)c2ccc(C(C)(C)O)cc2F)cc(F)cc1-c1ncnc2[nH]c(-c3ccc(CN4CCN(CCNC(=O)COc5cccc(N6CCC(=O)NC6=O)c5)CC4)cc3)cc12 [Compound 09, N-(3-(6-(4-((4-(2-(2-(3-(2,4-dioxotetrahydropyrimidin-1(2H)-yl)phenoxy)acetamido)ethyl)piperazin-1-yl)methyl)phenyl)-7H-pyrrolo[2,3-d]pyrimidin-4-yl)-5-fluoro-2-methylphenyl)-2-fluoro-4-(2-hydroxypropan-2-yl)benzamide]	3.9	3.2	1400
Cc1ccc(OCC(=O)N2CCN(CCOc3ccc(-c4cc5c(-c6cc(F)cc(NC(=O)c7ccc(C(C)(C)O)cc7F)c6C)ncnc5[nH]4)cc3)CC2)cc1N1CCC(=O)NC1=O [Compound 10, N-(3-(6-(4-(2-(4-(2-(3-(2,4-Dioxotetrahydropyrimidin-1(2H)-yl)-4-methylphenoxy)acetyl)piperazin-1-yl)ethoxy)phenyl)-7H-pyrrolo[2,3-d]pyrimidin-4-yl)-5-fluoro-2-methylphenyl)-2-fluoro-4-(2-hydroxypropan-2-yl)benzamide]	3.1	3.3	466
Cc1c(NC(=O)c2ccc(C(C)(C)O)cc2F)cc(F)cc1-c1ncnc2[nH]c(-c3ccc(CN4CCC(CCNC(=O)COc5cccc(N6CCC(=O)NC6=O)c5)CC4)cc3)cc12 [Compound 11, N-(3-(6-(4-((4-(2-(2-(3-(2,4-Dioxotetrahydropyrimidin-1(2H)-yl)phenoxy)acetamido)ethyl)piperidin-1-yl)methyl)phenyl)-7H-pyrrolo[2,3-d]pyrimidin-4-yl)-5-fluoro-2-methylphenyl)-2-fluoro-4-(2-hydroxypropan-2-yl)benzamide]	2.3	2.2	599
Cc1c(NC(=O)c2ccc(C(C)(C)O)cc2F)cc(F)cc1-c1ncnc2[nH]c(-c3ccc(CN(C)CCCNC(=O)COc4cccc(N5CCC(=O)NC5=O)c4)cc3)cc12 [Compound 12, N-(3-(6-(4-(((3-(2-(3-(2,4-dioxotetrahydropyrimidin-1(2H)-yl)phenoxy)acetamido)propyl)(methyl)amino)methyl)phenyl)-7H-pyrrolo[2,3-d]pyrimidin-4-yl)-5-fluoro-2-methylphenyl)-2-fluoro-4-(2-hydroxypropan-2-yl)benzamide]	2.3	10.7	7160
Cc1c(NC(=O)N2CC(O)(CC(C)(C)C)C2)cc(F)cc1-c1ncnc2[nH]c(-c3ccc(OCCCN4CCN(C(=O)COc5ccc(Cl)c(N6CCC(=O)NC6=O)c5)CC4)nc3)cc12 [Compound 13, N-(3-(6-(6-(3-(4-(2-(4-chloro-3-(2,4-dioxotetrahydropyrimidin-1(2H)-yl)phenoxy)acetyl)piperazin-1-yl)propoxy)pyridin-3-yl)-7H-pyrrolo[2,3-d]pyrimidin-4-yl)-5-fluoro-2-methylphenyl)-3-hydroxy-3-neopentylazetidine-1-carboxamide]	4.6	3.7	575
Cc1c(NC(=O)c2ccc(C(C)(C)O)cc2F)cc(F)cc1-c1ncnc2[nH]c(-c3ccc(CNCCCCCCOc4cccc(N5CCC(=O)NC5=O)c4)cc3)cc12 [Compound 14, N-(3-(6-(4-(((6-(3-(2,4-Dioxotetrahydropyrimidin-1(2H)-yl)phenoxy)hexyl)amino)methyl)phenyl)-7H-pyrrolo[2,3-d]pyrimidin-4-yl)-5-fluoro-2-methylphenyl)-2-fluoro-4-(2-hydroxypropan-2-yl)benzamide]	25.9	25.9	504
Cc1c(NC(=O)c2ccc(C(C)(C)O)cc2F)cc(F)cc1-c1ncnc2[nH]c(-c3ccc(CN4CCOC(CN(C)CCOc5cccc(N6CCC(=O)NC6=O)c5)C4)cc3)cc12 (stereo not drawn) [Compound 15, N-(3-(6-(4-((2-(((2-(3-(2,4-Dioxotetrahydropyrimidin-1(2H)-yl)phenoxy)ethyl)(methyl)amino)methyl)morpholino)methyl)phenyl)-7H-pyrrolo[2,3-d]pyrimidin-4-yl)-5-fluoro-2-methylphenyl)-2-fluoro-4-(2-hydroxypropan-2-yl)benzamide]	28.8	21.7	4110
Cc1c(NC(=O)c2ccc(C(C)(C)O)cc2F)cc(F)cc1-c1ncnc2[nH]c(-c3ccc(CN(C)CCCCCCOc4cccc(N5CCC(=O)NC5=O)c4)cc3)cc12 [Compound 16, N-(3-(6-(4-(((6-(3-(2,4-Dioxotetrahydropyrimidin-1(2H)-yl)phenoxy)hexyl)(methyl)amino)methyl)phenyl)-7H-pyrrolo[2,3-d]pyrimidin-4-yl)-5-fluoro-2-methylphenyl)-2-fluoro-4-(2-hydroxypropan-2-yl)benzamide]	15.9	22.6	916
Cc1ncc(C(=O)NCCCCCN(C)Cc2ccc(-c3cc4c(-c5cc(F)cc(NC(=O)c6ccc(C(C)(C)O)cc6F)c5C)ncnc4[nH]3)cc2)cc1N1CCC(=O)NC1=O [Compound 17, 5-(2,4-Dioxotetrahydropyrimidin-1(2H)-yl)-N-(5-((4-(4-(5-fluoro-3-(2-fluoro-4-(2-hydroxypropan-2-yl)benzamido)-2-methylphenyl)-7H-pyrrolo[2,3-d]pyrimidin-6-yl)benzyl)(methyl)amino)pentyl)-6-methylnicotinamide]	16.6	101	3550
Cc1ccc(S(=O)(=O)NCCCCCNCc2ccc(-c3cc4c(-c5cc(F)cc(NC(=O)c6ccc(C(C)(C)O)cc6F)c5C)ncnc4[nH]3)cc2)cc1N1CCC(=O)NC1=O [Compound 18, N-(3-(6-(4-(((5-(3-(2,4-dioxotetrahydropyrimidin-1(2H)-yl)-4-methylphenylsulfonamido)pentyl)amino)methyl)phenyl)-7H-pyrrolo[2,3-d]pyrimidin-4-yl)-5-fluoro-2-methylphenyl)-2-fluoro-4-(2-hydroxypropan-2-yl)benzamide]	7.6	307	3090
Cc1c(NC(=O)c2ccc(C(C)(C)O)cc2F)cc(F)cc1-c1ncnc2[nH]c(-c3ccc(CNCCCCCCn4cc(-c5cccc(N6CCC(=O)NC6=O)c5)nn4)cc3)cc12 [Compound 19, N-(3-(6-(4-(((6-(4-(3-(2,4-Dioxotetrahydropyrimidin-1(2H)-yl)phenyl)-1H-1,2,3-triazol-1-yl)hexyl)amino)methyl)phenyl)-7H-pyrrolo[2,3-d]pyrimidin-4-yl)-5-fluoro-2-methylphenyl)-2-fluoro-4-(2-hydroxypropan-2-yl)benzamide]	48.2	229	104
